Experiments:
Assay in all cases: cells
Format in all cases: functional, cell-based, Homo sapiens
Calu-3 = details: Homo sapiens, Calu-3
Description: SANGER: Inhibition of human Calu-3 cell growth in a cell viability assay.

SK-MEL-24 = details: Homo sapiens, SK-MEL-24
Description: SANGER: Inhibition of human SK-MEL-24 cell growth in a cell viability assay.

NCI-H2342 = details: Homo sapiens, NCI-H2342
Description: SANGER: Inhibition of human NCI-H2342 cell growth in a cell viability assay.

SK-N-DZ = details: Homo sapiens, SK-N-DZ
Description: SANGER: Inhibition of human SK-N-DZ cell growth in a cell viability assay.

MC116 = details: Homo sapiens, MC116
Description: SANGER: Inhibition of human MC116 cell growth in a cell viability assay.

UMUC3 = details: Homo sapiens, UMUC3
Description: SANGER: Inhibition of human UM-UC-3 cell growth in a cell viability assay.

DBTRG-05MG = details: Homo sapiens, DBTRG-05MG
Description: SANGER: Inhibition of human DBTRG-05MG cell growth in a cell viability assay.

MZ2-MEL = details: Homo sapiens, MZ2-MEL
Description: SANGER: Inhibition of human MZ2-MEL cell growth in a cell viability assay.

A2780 = details: Homo sapiens, A2780
Description: SANGER: Inhibition of human A2780 cell growth in a cell viability assay.

LNCaP-Clone-FGC = details: Homo sapiens, LNCaP-Clone-FGC
Description: SANGER: Inhibition of human LNCaP-Clone-FGC cell growth in a cell viability assay.

LXF-289 cell line = details: Homo sapiens, LXF-289
Description: SANGER: Inhibition of human LXF-289 cell growth in a cell viability assay.

639-V = details: Homo sapiens, 639-V
Description: SANGER: Inhibition of human 639-V cell growth in a cell viability assay.

HSC-2 = details: Homo sapiens, HSC-2
Description: SANGER: Inhibition of human HSC-2 cell growth in a cell viability assay.

HCE-4 = details: Homo sapiens, HCE-4
Description: SANGER: Inhibition of human HCE-4 cell growth in a cell viability assay.

MHH-ES-1 = details: Homo sapiens, MHH-ES-1
Description: SANGER: Inhibition of human MHH-ES-1 cell growth in a cell viability assay.

HT-1376 = details: Homo sapiens, HT-1376
Description: SANGER: Inhibition of human HT-1376 cell growth in a cell viability assay.

CWR22R = details: Homo sapiens, 22Rv1
Description: SANGER: Inhibition of human 22RV1 cell growth in a cell viability assay.

CAL-62 = details: Homo sapiens, CAL-62
Description: SANGER: Inhibition of human CAL-62 cell growth in a cell viability assay.

KU812 cell line = details: Homo sapiens, KU812
Description: SANGER: Inhibition of human KU812 cell growth in a cell viability assay.

DMS-273 = details: Homo sapiens, DMS-273
Description: SANGER: Inhibition of human DMS-273 cell growth in a cell viability assay.

MSTO-211H = details: Homo sapiens, MSTO-211H
Description: SANGER: Inhibition of human MSTO-211H cell growth in a cell viability assay.

OVCAR-8 = details: Homo sapiens, OVCAR-8
Description: SANGER: Inhibition of human OVCAR-8 cell growth in a cell viability assay.

Detroit 562 = details: Homo sapiens, Detroit 562
Description: SANGER: Inhibition of human Detroit562 cell growth in a cell viability assay.

LS-411N = details: Homo sapiens, LS-411N
KOSC-2 = details: Homo sapiens, KOSC-2
Description: SANGER: Inhibition of human KOSC-2 cell growth in a cell viability assay.

MPP-89 = details: Homo sapiens, MPP-89
Description: SANGER: Inhibition of human MPP-89 cell growth in a cell viability assay.

OS-RC-2 = details: Homo sapiens, OS-RC-2
Description: SANGER: Inhibition of human OS-RC-2 cell growth in a cell viability assay.

HT-3 = details: Homo sapiens, HT-3
Description: SANGER: Inhibition of human HT-3 cell growth in a cell viability assay.

NCI-H2087 = details: Homo sapiens, NCI-H2087
Description: SANGER: Inhibition of human NCI-H2087 cell growth in a cell viability assay.

NCI-H1581 = details: Homo sapiens, NCI-H1581
Description: SANGER: Inhibition of human NCI-H1581 cell growth in a cell viability assay.

OE19 = details: Homo sapiens, OE19
Description: SANGER: Inhibition of human OE19 cell growth in a cell viability assay.

HOS = details: Homo sapiens, HOS
Description: SANGER: Inhibition of human HOS cell growth in a cell viability assay.

NCI-H720 = details: Homo sapiens, NCI-H720
Description: SANGER: Inhibition of human NCI-H720 cell growth in a cell viability assay.

ME-180 = details: Homo sapiens, ME-180
Description: SANGER: Inhibition of human ME-180 cell growth in a cell viability assay.

LB996-RCC = details: Homo sapiens, LB996-RCC
Description: SANGER: Inhibition of human LB996-RCC cell growth in a cell viability assay.

NCI-H226 = details: Homo sapiens, NCI-H226
Description: SANGER: Inhibition of human NCI-H226 cell growth in a cell viability assay.

MRK-nu-1 = details: Homo sapiens, MRK-nu-1
Description: SANGER: Inhibition of human MRK-nu-1 cell growth in a cell viability assay.

CPC-N = details: Homo sapiens, CPC-N
Description: SANGER: Inhibition of human CPC-N cell growth in a cell viability assay.

NCI-H716 = details: Homo sapiens, NCI-H716
Description: SANGER: Inhibition of human NCI-H716 cell growth in a cell viability assay.

THP-1 = details: Homo sapiens, THP-1
Description: SANGER: Inhibition of human THP-1 cell growth in a cell viability assay.

D-542MG = details: Homo sapiens, D-542MG
Description: SANGER: Inhibition of human D-542MG cell growth in a cell viability assay.

## CN(C)C(=N)NC(=N)N [METFORMIN]
Calu-3
  IC50: > 20 mM
SK-MEL-24
  IC50: > 20 mM
NCI-H2342
  IC50: 8.62 mM
SK-N-DZ
  IC50: 13.3 mM
MC116
  IC50: > 20 mM
UMUC3
  IC50: 12.8 mM
DBTRG-05MG
  IC50: 7.27 mM
MZ2-MEL
  IC50: > 20 mM
A2780
  IC50: 4.88 mM
LNCaP-Clone-FGC
  IC50: 5.23 mM
LXF-289 cell line
  IC50: 12 mM
639-V
  IC50: > 20 mM
HSC-2
  IC50: 12.1 mM
HCE-4
  IC50: 11 mM
MHH-ES-1
  IC50: > 20 mM
HT-1376
  IC50: 10.4 mM
CWR22R
  IC50: 18 mM
CAL-62
  IC50: > 20 mM
KU812 cell line
  IC50: 1.06 mM
DMS-273
  IC50: 13.6 mM
MSTO-211H
  IC50: > 20 mM
OVCAR-8
  IC50: > 20 mM
Detroit 562
  IC50: 16.5 mM
LS-411N
  IC50: 10.4 mM
KOSC-2
  IC50: 3.4 mM
MPP-89
  IC50: > 20 mM
OS-RC-2
  IC50: 13 mM
HT-3
  IC50: 8.16 mM
NCI-H2087
  IC50: > 20 mM
NCI-H1581
  IC50: 14.9 mM
OE19
  IC50: > 20 mM
HOS
  IC50: > 20 mM
NCI-H720
  IC50: 0.534 mM
ME-180
  IC50: > 20 mM

## CC[C@H](CO)Nc1nc(NCc2ccccc2)c2ncn(C(C)C)c2n1 [SELICICLIB]
SK-N-DZ
  IC50: > 0.016 mM
LB996-RCC
  IC50: > 0.016 mM
MC116
  IC50: > 0.016 mM
MZ2-MEL
  IC50: > 0.016 mM
NCI-H226
  IC50: > 0.016 mM
MRK-nu-1
  IC50: 0.00713 mM
LNCaP-Clone-FGC
  IC50: > 0.016 mM
CPC-N
  IC50: > 0.016 mM
LXF-289 cell line
  IC50: > 0.016 mM
NCI-H716
  IC50: > 0.016 mM
THP-1
  IC50: > 0.016 mM
KU812 cell line
  IC50: > 0.016 mM
MSTO-211H
  IC50: > 0.016 mM
LS-411N
  IC50: > 0.016 mM
D-542MG
  IC50: > 0.016 mM
MPP-89
  IC50: > 0.016 mM
OS-RC-2
  IC50: 0.0158 mM
NCI-H1581
  IC50: > 0.016 mM
NCI-H720
  IC50: > 0.016 mM

— ChEMBL document CHEMBL1201861, “Genomics of Drug Sensitity in Cancer screening data, Wellcome Trust Sanger Institute”
